≈ marks a conversion by molar mass, not a printed value. Calls of active or inactive are those of the source. The rule behind the calls is not given here.
Key:
[1] = system: Mycobacterium tuberculosis variant bovis; assay: Antimycobacterial activity against Mycobacterium bovis BCG ATCC 35734 assessed as inhibition of bacterial growth incubated for 5 days in 7H9 standard media by broth dilution method; assay type: functional; details: BCG ATCC 35734, 120 h, time 5 day
[2] = system: Mycobacterium tuberculosis variant bovis; assay: Disruption of proton motive force in Mycobacterium bovis BCG ATCC 35734 assessed as loss in mitochondrial membrane potential by measuring decline in fluorescence ratio at 4XMIC90 measured after >=12 hrs by DiOC2 based fluorescence analysis; assay type: functional, organism-based
[3] = system: Mycobacterium tuberculosis variant bovis; assay: Antimycobacterial activity against Mycobacterium bovis BCG ATCC 35734 assessed as inhibition of bacterial growth incubated for 5 days in 7H9 medium with addition of 10% FBS by broth dilution method; assay type: functional; details: BCG ATCC 35734, 120 h, time 5 day
[4] = system: Mycobacterium tuberculosis variant bovis; assay: Antimycobacterial activity against Mycobacterium bovis BCG ATCC 35734 assessed as inhibition of bacterial growth incubated for 5 days in 7H9 medium with omission of glycerol by broth dilution method; assay type: functional; details: BCG ATCC 35734, 120 h, time 5 day
[5] = system: Mycobacterium tuberculosis variant bovis; assay: Myco-bactericidal activity against Mycobacterium bovis BCG ATCC 35734 assessed as inhibition of bacterial colony formation incubated for 5 days by agar plate method; assay type: functional; details: BCG ATCC 35734, 120 h, time 5 day, read-out: MBC99.9

Compound	MIC90 [1] [µM]	also measured
c1ccc2[se]c(CNC3CCCCCC3)cc2c1	5 (≈ 1.53 µg/mL)	
O=C(NC1CCCCCCC1)c1cc2cc(Br)ccc2[nH]1	1.1 (≈ 0.384 µg/mL)	
O=C(NC1CCCCCCC1)c1cc2cc(Cl)ccc2[nH]1	0.8 (≈ 0.244 µg/mL)	
O=C(NC1CCCCC1)c1cc2ccc(C(F)(F)F)cc2[nH]1	1.6 (≈ 0.497 µg/mL)	
O=C(NC1CCCCCCC1)c1cc2ccccc2[nH]1	0.52 (≈ 0.141 µg/mL)	
Fc1ccc2cc(CNC3CCCCCCC3)[nH]c2c1	0.43 (≈ 0.118 µg/mL)	
c1ccc2[se]c(CNC3CCCCCCC3)cc2c1	2.1 (≈ 0.673 µg/mL)	Activity [2]: Active
FC(F)(F)c1ccc2cc(CNC3CCCCC3)[nH]c2c1	1.1 (≈ 0.326 µg/mL)	
c1ccc2sc(CNC3CCCCCC3)cc2c1	5 (≈ 1.3 µg/mL)	
c1ccc2sc(CNC3CCCCC3)cc2c1	> 45	
O=C(NC1CCCCCCC1)c1cc2ccc(C(F)(F)F)cc2[nH]1	0.04 (≈ 0.0135 µg/mL)	Activity [2]: Active; MIC50 [3]: 0.02 µM (≈ 0.00677 µg/mL); MIC90 [3]: 0.08 µM (≈ 0.0271 µg/mL); MIC50 [4]: 0.01 µM (≈ 0.00338 µg/mL); MBC [5]: 0.08 µM (≈ 0.0271 µg/mL); MIC50 [1]: 0.02 µM (≈ 0.00677 µg/mL)
c1ccc2[se]c(CNC34CC5CC(CC(C5)C3)C4)cc2c1	2.7 (≈ 0.93 µg/mL)	
Clc1ccc2[nH]c(CNC3CCCCCCC3)cc2c1	0.22 (≈ 0.064 µg/mL)	
O=C(NC1CCCCCCC1)c1cc2ccccc2[se]1	0.7 (≈ 0.234 µg/mL)	Activity [2]: Active
O=C(NC1CCCCCCC1)c1cc2ccc(C(F)(F)F)cc2[se]1	1.8 (≈ 0.724 µg/mL)	
c1ccc2sc(CNC34CC5CC(CC(C5)C3)C4)cc2c1	3.6 (≈ 1.07 µg/mL)	
O=C(NC1CCCCCC1)c1cc2ccc(C(F)(F)F)cc2[nH]1	0.21 (≈ 0.0681 µg/mL)	
O=C(NC1CCCCCCC1)c1cc2ccc(Br)cc2[nH]1	0.06 (≈ 0.021 µg/mL)	
O=C(NC1CCCCCCC1)c1cc2cc(OCc3ccccc3)ccc2[nH]1	0.17 (≈ 0.064 µg/mL)	
NNC(=O)c1ccncc1 [ISONIAZID]		MBC [5]: 10 µM (≈ 1.37 µg/mL)

Compound	MIC90 [1] [µM]	also measured
NC(=O)c1cc2ccccc2s1	> 50	
Brc1ccc2cc(CNC3CCCCCCC3)[nH]c2c1	0.16 (≈ 0.0536 µg/mL)	
c1ccc2[se]c(CNC3CCCCC3)cc2c1	> 35	
Brc1ccc2cc(CNC3CCCCCCC3)sc2c1	2.2 (≈ 0.775 µg/mL)	
FC(F)(F)c1ccc2cc(CNC3CCCCCCC3)[se]c2c1	2 (≈ 0.777 µg/mL)	
FC(F)(F)c1ccc2cc(CNC3CCCCCCC3)[nH]c2c1	0.08 (≈ 0.026 µg/mL)	Activity [2]: Active; MIC50 [3]: 0.07 µM (≈ 0.0227 µg/mL); MIC90 [3]: 0.16 µM (≈ 0.0519 µg/mL); MIC50 [4]: 0.04 µM (≈ 0.013 µg/mL); MBC [5]: 0.16 µM (≈ 0.0519 µg/mL); MIC50 [1]: 0.04 µM (≈ 0.013 µg/mL)
COc1ccc2cc(C(=O)NC3CCCCCCC3)[nH]c2c1	1.1 (≈ 0.33 µg/mL)	
Brc1ccc2[nH]c(CNC3CCCCCCC3)cc2c1	0.74 (≈ 0.248 µg/mL)	
O=C(NC1CCCCC1)c1cc2ccccc2s1	> 50	
O=C(NC1CCCCC1)c1cc2ccccc2[se]1	> 50	
Cc1cc(C)c2cc(CNC3CCCCCCC3)[nH]c2c1	0.25 (≈ 0.0711 µg/mL)	
Cc1cc(C)c2cc(C(=O)NC3CCCCCCC3)[nH]c2c1	0.04 (≈ 0.0119 µg/mL)	
O=[N+]([O-])c1ccc2[nH]c(CNC3CCCCCCC3)cc2c1	0.69 (≈ 0.208 µg/mL)	
O=C(NC1CCCCCCC1)c1cc2ccc(OCc3ccccc3)cc2[nH]1	0.07 (≈ 0.0264 µg/mL)	
O=C(NC1CCCCCC1)c1cc2ccccc2s1	3 (≈ 0.82 µg/mL)	
COc1ccc2[nH]c(CNC3CCCCCCC3)cc2c1	1.5 (≈ 0.43 µg/mL)	
COc1ccc2[nH]c(C(=O)NC3CCCCCCC3)cc2c1	0.65 (≈ 0.195 µg/mL)	
O=C(NC1CCCCCCC1)c1cc2ccc(C(F)(F)F)cc2s1	0.4 (≈ 0.142 µg/mL)	
c1ccc(COc2ccc3[nH]c(CNC4CCCCCCC4)cc3c2)cc1	0.31 (≈ 0.112 µg/mL)	
O=C(NC1CCCCCC1)c1cc2ccccc2[se]1	2.7 (≈ 0.865 µg/mL)	

Compound	MIC90 [1] [µM]	also measured
O=C(NC1CCCCCCC1)c1cc2cc(O)ccc2[nH]1	48 (≈ 13.7 µg/mL)	
O=C(NC1CCCCCCC1)c1cc2cc(F)ccc2[nH]1	0.61 (≈ 0.176 µg/mL)	
O=C(NC1CCCCCCC1)c1cc2ccccc2s1	0.5 (≈ 0.144 µg/mL)	Activity [2]: Active
O=C(NC12CC3CC(CC(C3)C1)C2)c1cc2ccccc2s1	0.9 (≈ 0.28 µg/mL)	
Fc1ccc2[nH]c(CNC3CCCCCCC3)cc2c1	0.33 (≈ 0.0905 µg/mL)	
c1ccc2[nH]c(CNC3CCCCCCC3)cc2c1	0.75 (≈ 0.192 µg/mL)	
c1ccc2sc(CNC3CCCCCCC3)cc2c1	3.4 (≈ 0.93 µg/mL)	Activity [2]: Active
O=C(NC1CCCCCCC1)c1cc2ccc(O)cc2[nH]1	11 (≈ 3.15 µg/mL)	
O=C(NC12CC3CC(CC(C3)C1)C2)c1cc2ccccc2[se]1	1 (≈ 0.358 µg/mL)	
O=C(NC1CCCCCCC1)c1cc2cc([N+](=O)[O-])ccc2[nH]1	0.41 (≈ 0.129 µg/mL)	
Brc1ccc2cc(CNC3CCCCCCC3)[se]c2c1	0.54 (≈ 0.216 µg/mL)	
Clc1ccc2cc(CNC3CCCCCCC3)[nH]c2c1	0.1 (≈ 0.0291 µg/mL)	
O=C(NC1CCCCCCC1)c1cc2ccc(Br)cc2[se]1	0.78 (≈ 0.322 µg/mL)	
FC(F)(F)c1ccc2cc(CNC3CCCCCCC3)sc2c1	0.78 (≈ 0.266 µg/mL)	
O=C(NC1CCCCCCC1)c1cc2ccc(F)cc2[nH]1	0.18 (≈ 0.0519 µg/mL)	
O=C(NC1CCCCCCC1)c1cc2ccc(Cl)cc2[nH]1	0.11 (≈ 0.0335 µg/mL)	
O=C(NC1CCCCCCC1)c1cc2ccc(Br)cc2s1	0.8 (≈ 0.293 µg/mL)	
COc1ccc2cc(CNC3CCCCCCC3)[nH]c2c1	1.2 (≈ 0.344 µg/mL)	
